# Measurements: paper PMC9057582, “HIF inhibitor 32-134D eradicates murine hepatocellular carcinoma in combination with anti-PD1 therapy” (The Journal of Clinical Investigation, 2022)
# How the values were obtained:
# Hep3B tumor xenograft = assay: Analysis of Hep3B xenograft tumors (immunoblot, RT-qPCR, ELISA, CD31 immunohistochemistry); format: in vivo, nude (nu/nu) mice
# Description: Figure 2 Effect of 32-134D on Hep3B tumor xenograft growth and vascularization. (A) Female nude mice received a subcutaneous injection of […] Hep3B cells. When tumors reached a volume of 150 mm^3 (designated treatment day 1), the mice were randomized to receive a daily intraperitoneal injection of 32-134D at a dose of 0 (blue), 20 (black), 40 (red), or 80 (green) mg/kg. Data are presented as mean tumor volume (± SEM; n = 4 each). **P < 0.01, ***P < 0.001 (ANOVA with Bonferroni’s post hoc test). (B) Gross pathology of tumors harvested from vehicle-treated (top panel) and 32-134D–treated (bottom panel) mice. (C) Nuclear extracts prepared from tumors were assayed by immunoblotting using antibodies against the indicated proteins. (D) Total RNA was isolated from tumor tissue and analyzed by RT-qPCR using primers specific for the indicated mRNAs and results (mean ± SEM, n = 4) were normalized to the mean value for tumors from vehicle-treated mice. (E) ELISA for the indicated proteins was performed using aliquots of tumor lysates (mean ± SEM; n = 3–4 tumors each). *P < 0.05 (Mann-Whitney test). (F) Formalin-fixed and paraffin-embedded tumor sections were analyzed by immunohistochemistry using an antibody against CD31 to identify vascular endothelial cells. Scale bar: 100 μm. The total CD31^+ vessel area per field was quantified using ImageJ (mean ± SEM; n = 4 tumors with 5 sections per tumor). *P < 0.05 (Student’s t test).
# Intratumoral HIF-1β protein levels were not affected by treatment with 32-134D (Supplemental Figure 5E).
# Female nude mice (NCI Athymic NCr-nu/nu) and male C57L mice were purchased from Charles River and The Jackson Laboratory, respectively. Hep3B (8 × 10^6) and Hepa1-6 (1 × 10^7) cells were resuspended in PBS and Matrigel (1:1, vol/vol) and implanted subcutaneously in 6- to 8-week-old mice, and tumor volume was calculated as V = abc × 0.52. For Hep3B tumor studies, once tumors reached 100 to 150 mm^3, mice were randomized into groups to receive daily intraperitoneal injection of either 32-134D or vehicle only (20% PEG-400, 10% Cremophor EL, 10% ethanol in PBS). For Hepa1-6 tumors, mice were randomized to receive treatment once tumors became palpable (tumor eradication experiment) or reached a volume of 200 mm^3 (harvesting of tumors for flow cytometry and analysis of RNA and protein expression). Tumors were harvested 4 hours after the last treatment (see Supplemental Table 6 for reagent sources).
# Tumor samples were fixed in 10% formalin in phosphate buffer for 24 hours and placed in PBS the following day for paraffin embedding and sectioning. Anti-CD31 immunohistochemical staining, hematoxylin and eosin counterstaining, and whole-slide scanning were performed by NDB Bio (www.ndbbio.com).
# (§1) Tumors were homogenized in ice-cold PBS supplemented with 1% Triton X-100 and PIs, centrifuged at 10,000g for 20 minutes to pellet debris, and the supernatant was collected for ELISA using commercial kits (Supplemental Table 6). Optical density was obtained at 450 nm (corrected for readings at 570 nm) using the VICTOR Nivo plate reader. Sample protein concentration was calculated by linear regression from a standard curve.
# Hepa1-6 tumors = assay: Intratumoral mRNA (RT-qPCR, RT-qPCR array) and protein (ELISA) expression in Hepa1-6 tumors; format: in vivo, C57L mice
# Description: By contrast, the expression of mRNAs encoding the chemokine CXCL1 and interleukins IL-6 and IL-10, which recruit/activate TAMs and/or MDSCs (Supplemental Table 4), was inhibited by 32-134D treatment (P < 0.05; Figure 6D).
# Figure 6 Effect of 32-134D on intratumoral gene expression. (A–D) C57L mice were injected with Hepa1-6 HCC cells subcutaneously and when tumors reached a volume of 200 mm^3, the mice were treated with vehicle (blue bars) or 32-134D (40 mg/kg; red bars) by daily intraperitoneal injection for 8 days. The tumors were harvested and mRNA was quantified by RT-qPCR and normalized to blue (mean ± SEM, n = 4). *P < 0.05 versus blue (ANOVA with Bonferroni’s post hoc test). (E) Effect of 32-134D on intratumoral expression of cytokines and chemokines. Total RNA isolated from tumors of 32-134D–treated versus vehicle-treated mice (n = 3 each) was analyzed using an RT-qPCR array and the ratio of mean expression (32-134D/vehicle) was determined. mRNAs with a significant difference between groups (P < 0.05, Student’s t test) are annotated.
# Figure 7 Effect of 32-134D on intratumoral expression of immunoregulatory proteins. (A–H) Lysates prepared from tumors of 32-134D–treated versus vehicle-treated mice were subjected to ELISA for secreted proteins mediating antitumor immunity (CXCL2, CXCL9, CXCL10) or immunosuppression (CXCL1, IL-6, IL-10, VEGFA). The data are presented as mean ± SEM (n = 4 each). *P < 0.05 (Mann-Whitney test).
# as §1
# Total RNA from Hepa1-6 tumors was analyzed using the RT^2 Profiler PCR Array of Mouse Cytokines and Chemokines (Supplemental Table 6) according to the manufacturer’s instructions.
# [1] = RT-qPCR array of 84 mRNAs, P < 0.05
# [2] = RT-qPCR, 40 mg/kg, 8 days, P < 0.05
compound,measurement,setting,value
Brc1ccc2c(-c3csc(-c4c[nH]c5c(Br)cccc45)n3)c[nH]c2c1 [Compound 32-134D],"VEGFA, EPO, SDF-1α and SCF protein in tumor lysates","Hep3B tumor xenograft; ELISA, P < 0.05",significantly decreased expression
same,"tumor mRNA expression of ANGPTL4, EPO, PGF, CD73, PDL1, VEGFA, SDF-1, SCF","Hep3B tumor xenograft; RT-qPCR, P < 0.05",significant decrease
same,intratumoral HIF-1β protein levels,Hep3B tumor xenograft; immunoblot,not affected
same,intratumoral HIF-1α and HIF-2α protein expression,Hep3B tumor xenograft; immunoblot of tumor lysates,almost complete loss
same,CD31+ blood vessel area in tumors,"Hep3B tumor xenograft; immunohistochemistry, P < 0.05",significantly decreased blood vessel area
same,"CXCL1, IL-6, IL-10, and VEGFA protein in tumor lysates",Hepa1-6 tumors; ELISA,decreased levels
same,"CXCL2, CXCL9, and CXCL10 protein in tumor lysates","Hepa1-6 tumors; ELISA, P < 0.05",significantly increased levels
same,number of cytokine/chemokine mRNAs with decreased expression,Hepa1-6 tumors; [1],40 mRNAs
same,number of cytokine/chemokine mRNAs with increased expression,Hepa1-6 tumors; [1],5 mRNAs
same,"tumor expression of CXCL1, IL-6 and IL-10 mRNA",Hepa1-6 tumors; [2],inhibited
same,"tumor expression of CXCL9, CXCL10, and IFN-γ mRNA",Hepa1-6 tumors; [2],increased
same,"tumor mRNAs encoding angiogenic factors (ANGPTL4, EPO, PGF, VEGFA) and immunosuppression proteins (B7H4, CD47, CD73, PDL1, SLC2A1, HAVCR2, CD70, LDHA, ENTPD1, CA9)",Hepa1-6 tumors; [2],significantly decreased
